The source of these data is patent US20200131144A1, “AMINE OR (THIO)AMIDE CONTAINING LXR MODULATORS” (Phenex-FXR GmbH, priority 2017, published 2020).

In data set [1] the test system is T1, LXR.
T1 construct: rows headed: activity on LXR; other: confirmed by applicant; LXRα (amino acids 1-447); NP005684; NP009052
Nature of the data set: Activity on LXR, assay not specified. Conditions: confirmed by applicant. The text has this: The following compounds from this application, in particular, are further described in some publications, mainly from the same group of inventors/authors: SR9238 is described as a liver-selective LXR inverse agonist that suppresses hepatic steatosis upon parenteral administration (Griffett et al., ACS Chem. Biol. 2013; 8:559). […] This compound then has systemic exposure. In addition, it was described, that SR9238 suppresses fibrosis in a model of NASH again after parenteral administration (Griffett et al., Mol. Metab. 2015; 4:35). With a related SR9243 the effects on aerobic glycolysis (Warburg effect) and lipogenesis were described (Flaveny et al., Cancer Cell 2015; 28:42) and the NASH-supressing data obtained with SR9238 was confirmed by Huang et al. (BioMed Res. Int. 2018; 8071093) using SR9243.

Data set [2] has as its system LXR. Conditions: literature; cited from earlier work.
Data set [3] concerns the target T2, GST-LXRβ ligand-binding domain (Homo sapiens, UniProt P55055, INS174Q).
T2 construct: amino acids 156-461; NP009052; made in house; host or cells: E. coli
T2 sequence (P55055 with tags, fused parts or gaps INS174Q limits assumed): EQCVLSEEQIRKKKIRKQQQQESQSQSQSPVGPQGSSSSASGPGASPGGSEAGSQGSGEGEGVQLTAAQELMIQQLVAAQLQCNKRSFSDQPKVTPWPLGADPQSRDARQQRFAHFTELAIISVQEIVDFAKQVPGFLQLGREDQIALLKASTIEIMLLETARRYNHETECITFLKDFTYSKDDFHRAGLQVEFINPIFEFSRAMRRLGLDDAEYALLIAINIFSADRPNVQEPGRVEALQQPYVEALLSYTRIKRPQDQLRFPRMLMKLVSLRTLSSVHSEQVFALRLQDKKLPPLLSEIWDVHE
Briefly: TR-FRETβ activity assay (NCoA3 coactivator peptide recruitment). It counts as biochemical. Particulars: 1 μM 24(S)-25-epoxycholesterol as prestimulating agonist; inverse agonist unless *. In a few lines:
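E. coli-expressed GST-LXRβ LBD (aa 156-461, 76 nM) with biotinylated NCoA3 peptide (400 nM), anti-GST-Tb cryptate donor and streptavidin-XL665 acceptor in 240 mM KCl, BSA, 0.002% Triton X-100. Equilibrated 1 h at 4° C; TR-FRET read at 615/665 nm, triplicates.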

The nature of data set [4]: Chemical stability of stock solutions and solids. Conditions: sodium salt. The data set is classed as physicochemical. On the procedure:
To a solution of compound 7/9 (150 mg, 0.24 mmol) in MeOH (10 mL) and water (10 mL) was added NaOH ([…], 0.48 mmol) at rt. The mixture was stirred at rt overnight and concentrated. The residue was washed with H2O to give compound 14 as a white solid.
(§1) The tested compounds were usually dissolved, tested and stored as 20 mM stock solutions in DMSO. Since sulfonyl acetic acid derivatives tend to decarboxylate under these conditions, these stock solutions were prepared, tested and stored as 20 mM DMSO stock solutions containing 100 mM trifluoroacetic acid (5 equivalents). Sulfonyl acetic acid derivatives are shelf stable as solid at rt for long time as reported by Griesbrecht et al. (Synlett 2010:374) or Faucher et al. (J. Med. Chem. 2004; 47:18).

The target of data set [5] is T3, LXRα ligand-binding domain (LBD) (Homo sapiens, UniProt Q13133).
T3 construct: expressed in transfected cells; host or cells: HEK293
T3 sequence (Q13133 155-447): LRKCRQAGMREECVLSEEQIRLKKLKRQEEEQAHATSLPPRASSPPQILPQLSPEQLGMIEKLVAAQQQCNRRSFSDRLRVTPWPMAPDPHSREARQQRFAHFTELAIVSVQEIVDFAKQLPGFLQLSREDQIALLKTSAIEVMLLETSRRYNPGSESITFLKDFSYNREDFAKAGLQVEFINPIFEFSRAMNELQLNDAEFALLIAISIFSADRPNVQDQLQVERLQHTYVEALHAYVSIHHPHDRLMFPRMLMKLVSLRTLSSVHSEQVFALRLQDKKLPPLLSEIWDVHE
Briefly: LXR Gal4 reporter transient transfection assay, mammalian two-hybrid, LBD-M2H Gal4α. It counts as cell-based. Conditions: HEK293 cells; inverse agonist unless *. The method, then:
as §1
LXR Gal4 Reporter Transient Transfection Assays
LXRα and LXRβ activity status was determined via detection of interaction with coactivator and corepressor proteins in mammalian two-hybrid experiments (M2H). For this, via transient transfection the full length (FL) proteins of LXRα (amino acids 1-447; NP005684; SEQ ID NO:1) or LXRβ-(amino acids 1-461; NP009052; SEQ ID NO:2) or the ligand-binding domains (LBD) of LXRα (amino acids 155-447 SEQ ID NO:3) or LXR (amino acids 156-461; SEQ ID NO:4) were expressed from pCMV-AD (Stratagene) as fusions to the transcriptional activation domain of NFkB. As cofactors, domains of either the steroid receptor coactivator 1 (SRC1; amino acids 552-887; SEQ ID NO:5) or of the corepressor NCoR (amino acids 1906-2312; NP006302; SEQ ID NO:6) were expressed as fusions to the DNA binding domain of the yeast transcription factor GAL4 (from pCMV-BD; Stratagene). Interaction was monitored via activation of a coexpressed Firefly Luciferase Reporter gene under control of a promoter containing repetitive GAL4 response elements (vector pFRLuc; Stratagene). Transfection efficiency was controlled via cotransfection of constitutively active pRL-CMV Renilla reniformis luciferase reporter (Promega). HEK293 cells were grown in minimum essential medium (MEM) with 2 mM L-glutamine and Earle's balanced salt solution supplemented with 8.3% fetal bovine serum, 0.1 mM non-essential amino acids, 1 mM sodium pyruvate, at 37° C. in 5% CO2. 3.5×10^4 cells/well were plated in 96-well cell culture plates in growth medium supplemented with 8.3% fetal bovine serum for 16-20 h to—90% confluency. For transfection, medium was taken off and LXR and cofactor expressing plasmids as well as the reporter plasmids are added in 30 μL OPTIMEM/well including polyethylene-imine (PEI) as vehicle. Typical amounts of plasmids transfected/well: pCMV-AD-LXR (5 ng), pCMV-BD-cofactor (5 ng), pFR-Luc (100 ng), pRL-CMV (0.5 ng). Compound stocks were prepared in DMSO, prediluted in MEM to a total volume of 120 μL, and added 4 h after addition of the transfection mixture (final vehicle concentration not exceeding 0.2%). Cells were incubated for additional 16 h, lysed for 10 min in 1×Passive Lysis Buffer (Promega) and Firefly and Renilla luciferase activities were measured sequentially in the same cell extract using buffers containing D-luciferine and coelenterazine, respectively. Measurements of luminescence were done in a BMG-luminometer.

Data set [6] addresses T4, LXRβ ligand-binding domain (LBD) (Homo sapiens, UniProt P55055, INS174Q).
T4 construct: or LXR (amino acids 156-461); expressed in transfected cells; host or cells: HEK293
T4 sequence (P55055 with tags, fused parts or gaps INS174Q limits assumed): T2 sequence (P55055 with tags, fused parts or gaps INS174Q limits assumed)
Briefly: LXR Gal4 reporter transient transfection assay, mammalian two-hybrid, LBD-M2H Gal4β. It counts as cell-based. Conditions: HEK293 cells; inverse agonist unless *. In a few lines: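 HEK293 cells transiently cotransfected with NFkB-AD fusions of full-length or LBD LXRα/β, GAL4-DBD fusions of SRC1 coactivator or NCoR corepressor domains, GAL4-driven firefly luciferase and Renilla control. Compound added 4 h post-transfection (≤0.2% DMSO), 16 h incubation; firefly and Renilla luminescence read sequentially.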

pEC50: −log10 of the molar value. Where only a bound is given, the exact number is not on record here.

For `Cc1cc(C)c(S(=O)(=O)N(Cc2ccc(-c3cccc(S(C)(=O)=O)c3)cc2)Cc2ccc(C(=O)O)o2)c(C)c1` [SR10389], the “activity on LXR” value in the data set on LXR [1] is “inactive on LXR”. Further, the LXR activity result in the data set with LXR [2] is “LXR inactive”.

`COc1cc(-c2ccc(CO)c(C(C)(C)C(=O)[O-])c2)ccc1CN(Cc1ccc(C(F)(F)F)o1)Cc1c(C)ccc2ccccc12.[Na+]` [Example 14]: the pEC50 (commonly the negative decadic logarithm of the EC50, by convention in mol/L) in data set [3] was 5.00 to 6.00; in data set [5], 5.00 to 6.00; in data set [6] it was over 7.00. For the same molecule, the stability upon standing result in data set [4] is reported as “tends to cyclisize back to lacton 7/9 upon standing”.
